Source: patent US20130209522A1, “Drug Release from a Polymer-Controlled Local Antibiotic Delivery System Using a Degradable Bone Graft” (UNIVERSITY OF UTAH RESEARCH FOUNDATION, priority 2012, published 2013)
Counter-ions that a name gives are not always drawn. Like-named read-outs stand apart in the source and are kept apart here.

Assays:
[1] = tested on: Staphylococcus aureus (ATCC 25923); test: Zone of inhibition of antibiotic release samples; type: cell-based; conditions: released from PCL-coated allograft bone
Experimental: Zone of Inhibition. Immediately following the kinetics assay, filter paper disks (diameter=6 mm) were placed in the antibiotic release samples in the 96-well plate and dried overnight. Staphylococcus aureus (ATCC 25923 from American Type Culture Collection, Manassas, Va., USA) streaked Brain-Heart Infusion (BHI, BD cat#237500) agar plates were prepared for zone of inhibition experiments using pooled isolated colonies from blood agar plates diluted to a standard concentration (0.5 McFarland units). Subsequently, each drug-containing disk was placed on the bacterial-streaked agar […]. Plates were incubated for 18 hours at 37° C. Electronic calipers were used to measure the cleared (no bacterial growth) diameter surrounding each disk (zone of inhibition). If no measurable zone was present the diameter was recorded as zero.

[2] = cited from earlier work; for Solubility in organic solvents / Water solubility / pH induced in the surrounding: Table 3, for reference; for Solubility in organic solvents: cell wraps over several lines, first line given; for Solubility: ranking of solvents, Table 2
[3] = Tobramycin thermostability during PCL formulation (bioactivity); type: physicochemical; conditions: after inclusion in a PCL formulation; data not shown

In the case of `O=C(O)c1cn(C2CC2)c2cc(N3CCNCC3)c(F)cc2c1=O` [Ciprofloxacin], the “zones of inhibition compared to the antibiotic salts (vancomycin and oxacillin)” value [1] is reported as “enhanced zones of inhibition”.

In the case of `Cc1onc(-c2ccccc2)c1C(=O)N[C@@H]1C(=O)N2[C@@H]1SC(C)(C)[C@@H]2C(=O)O` [Oxacillin], the “Solubility in organic solvents” value [2] is given as “High: MeOH,”, the Water solubility [2] is given as “(13.9 mg/ml” and the “pH induced in the surrounding” value [2] is given as “High”.

For `CO[C@H]1/C=C/O[C@@]2(C)Oc3c(C)c(O)c4c(O)c(c(/C=N/N5CCN(C)CC5)c(O)c4c3C2=O)NC(=O)/C(C)=C\C=C\[C@H](C)[C@H](O)[C@@H](C)[C@@H](O)[C@@H](C)[C@H](OC(C)=O)[C@@H]1C` [Rifampin], the “zones of inhibition compared to the antibiotic salts (vancomycin and oxacillin)” value [1] is listed as “enhanced zones of inhibition” and the “Solubility in organic solvents” value [2] is listed as “DMSO, CHCl3,”.

For `NC[C@H]1O[C@H](O[C@H]2[C@H](O)[C@@H](O[C@H]3O[C@H](CO)[C@@H](O)[C@H](N)[C@H]3O)[C@H](N)C[C@@H]2N)[C@H](N)C[C@@H]1O` [Tobramycin], the “Solubility in organic solvents” value [2] is listed as “EtOH”, the Water solubility [2] is listed as “(538 mg/ml” and the “pH induced in the surrounding” value [2] is listed as “Low”. For the same molecule, the solubility in alcohols ([2]; in words) was “marginally soluble”, the solubility in water ([2]; in words) was “very water-soluble” and the solubility in water ([2]; in words, listed as tobramycin) was “highly soluble”. For the same molecule, the thermostability during formulation [3] was “no loss in bioactivity”.

In the case of `CN[C@H](CC(C)C)C(=O)N[C@H]1C(=O)N[C@@H](CC(N)=O)C(=O)N[C@H]2C(=O)N[C@H]3C(=O)N[C@H](C(=O)N[C@H](C(=O)O)c4cc(O)cc(O)c4-c4cc3ccc4O)[C@H](O)c3ccc(c(Cl)c3)Oc3cc2cc(c3O[C@@H]2O[C@H](CO)[C@@H](O)[C@H](O)[C@H]2O[C@H]2C[C@](C)(N)[C@H](O)[C@H](C)O2)Oc2ccc(cc2Cl)[C@H]1O` [Vancomycin HCL], the Solubility [2] is given as “water >>> chloroform & ethanol”.

In the case of `CN[C@H](CC(C)C)C(=O)N[C@H]1C(=O)N[C@@H](CC(N)=O)C(=O)N[C@H]2C(=O)N[C@H]3C(=O)N[C@H](C(=O)N[C@H](C(=O)O)c4cc(O)cc(O)c4-c4cc3ccc4O)[C@H](O)c3ccc(c(Cl)c3)Oc3cc2cc(c3O[C@@H]2O[C@H](CO)[C@@H](O)[C@H](O)[C@H]2O[C@H]2C[C@](C)(N)[C@H](O)[C@H](C)O2)Oc2ccc(cc2Cl)[C@H]1O` [Vancomycin], the “Solubility in organic solvents” value [2] is listed as “DMSO”.

For Tobramycin Sulfate, the Solubility [2] is given as “water >>> acetone >> ethanol”.
